From US20080132529A1, “Method of improving bioavailability for non-sedating barbiturates” (priority 2006, published 2008)
Where “and” joins values, the source holds several entries; their conditions need not be identical. Equal values may be shown once.

What was measured:
[1] = Phase I food-effect crossover pharmacokinetic study, single 400 mg oral dose of T2000 (DMMDPB), fasting vs fed; details: for Rate and extent of absorption when administered after a high fat, high calorie breakfast: fed vs fasting; for Rate and extent of absorption when administered after a high fat, high calorie breakfast / AUC(0-inf) / Cmax / half-life / Tmax / AUC0-t Ratio (Fasting/Fed) / T1/2 Ratio (Fasting/Fed) / Tmax Ratio (Fasting/Fed) / Cmax Ratio (Fasting/Fed) / AUC0-∞ Ratio (Fasting/Fed): single 400 mg oral dose of DMMDPB; for AUC(0-t) / AUC(0-inf) / Cmax / half-life / Tmax: male, human, plasma, po, 400 mg; for AUC(0-t): AUC0-t, plasma analyte after single 400 mg oral dose of DMMDPB; for AUC(0-t) / Cmax / Tmax / AUC0-t Ratio (Fasting/Fed) / Cmax Ratio (Fasting/Fed): n=23; for AUC(0-t) / AUC(0-inf): least-squares geometric mean; for AUC(0-inf): AUC0-∞; for AUC(0-inf) / half-life / AUC0-∞ Ratio (Fasting/Fed): n=18 for DMMDPB, n=20 for MMMDPB; for half-life / Tmax: arithmetic mean; for AUC0-t Ratio (Fasting/Fed): ratio fasting/fed of geometric means
Procedure: This was a single center, randomized, single dose, open-label, 2-way, food-effect crossover study to compare the rate and extent of absorption of T2000, administered as 4×100 mg capsules (for a total dose of 400 mg), under fasting and fed conditions. Subjects were confined to a clinical research facility from at least 11 hours prior to drug administration until after the 72.0-hour post-dose blood draw, in each period. Single oral doses were separated by a washout period of at least 21 days.
All subjects met the inclusion and exclusion criteria described in the protocol and were judged eligible for the study, based on medical history, demographic data (including sex, age, body weight [kg], height [cm], and BMI [kg/m2], medication history, physical examination, vital signs (blood pressure, respiratory rate, heart rate, and oral temperature), 12-lead ECG, brief neurological examination (including assessment of mental status, orientation, memory, arithmetic and spelling, eye movement, gait and coordination), opthalmology examination (lamp examination; performed within 3 months prior to the first dose), and clinical laboratory tests (hematology, biochemistry, urinalysis, HIV and hepatitis C [HCV] antibodies, and hepatitis B antigen [HBsAg]). […] Screening procedures took place within 28 days prior to Period 1 drug administration.
Subjects abstained from food or drink containing xanthine derivatives or xanthine-related compounds (e.g. coffee, tea, caffeine-containing sodas, colas, chocolate, or decaffeinated products) and energy drinks from 48 hours prior to drug administration, until the end of sample collection in each period; alcohol from 24 hours prior to drug administration, until the end of sample collection in each period, and grapefruit products (e.g. fresh, canned, or frozen); natural food supplements (including garlic as a supplement), and vitamins from 7 days prior to drug administration, until the end of sample collection in each period. Any subjects who felt dizzy or drowsy when they left the clinical facility were advised against performing activities requiring mental alertness, judgment, and physical coordination until they felt safe to do so.
Treatment A: The subjects fasted for at least 10 hours prior to drug administration.
Treatment B: After a supervised overnight fast of at least 10 hours, and 30 minutes before drug administration, subjects were served a standard high-fat, high-caloric breakfast of approximately 1000 calories (approximately 150 calories from protein, 250 calories from carbohydrates, and […]). […] Subjects were required to completely consume this breakfast within 30 minutes, and prior to drug administration. Subjects were dosed on the momrings of Apr. […] Subjects were administered the test or reference medication as a single oral dose of 4 capsules, each containing 100 mg of prodrug T2000 (total dose of 400 mg), with approximately 240 ml of water. Subjects were dosed as specified in the protocol, and subsequently fasted for a period of at least 4 hours. A mouth and hand check was performed to ensure the subjects had swallowed the study medication.
All blood samples were drawn into blood collection tubes (1×7 ml) containing EDTA K3 prior to drug administration and 0.500, 1.00, 2.00, 3.00, 4.00, 5.00, 6.00, 8.00, 10.0, 12.0, 15.0, 18.0, 24.0, 36.0, 48.0, 72.0, 96.0, and 120 hours post-dose in each period. All blood samples were collected via direct venipuncture.
Analysis of T-2000, MMMDPB and DPB were performed using High Performance Liquid Chromatographic Method with Tandem Mass. Spectrometry Detection. The analytical method was developed and validated.

[2] = Early pharmacokinetic studies in dogs, high fat meal vs customary dog food; type: in vivo
[3] = test system: electroshock and chemoconvulsive seizures; details: animal studies; at doses which exhibited no neurological impairment; cited from earlier work
[4] = in vivo; cited from earlier work
[5] = Fed (high-fat breakfast 30 min before dose)

| Compound | Rate and extent of absorption when administered after a high fat, high calorie breakfast [1] | AUC(0-t) ([1]; Fasting, healthy subjects) | AUC(0-t) [1, 5] | AUC(0-inf) ([1]; Fasting) | AUC(0-inf) ([1]; Fed) | Cmax ([1]; Fasting) | Cmax ([1]; Fed) | half-life ([1]; T1/2, Fasting) | half-life ([1]; T1/2, Fed) | Tmax ([1]; Fasting) | Tmax ([1]; Fed) | AUC0-t Ratio (Fasting/Fed) [1] | T1/2 Ratio (Fasting/Fed) [1] | Tmax Ratio (Fasting/Fed) [1] | Cmax Ratio (Fasting/Fed) [1] | AUC0-∞ Ratio (Fasting/Fed) [1] | Anticonvulsant activity against electroshock and chemoconvulsive seizures [3] | further results |
| --- | --- | --- | --- | --- | --- | --- | --- | --- | --- | --- | --- | --- | --- | --- | --- | --- | --- | --- |
| COCN1C(=O)N(COC)C(=O)C(c2ccccc2)(c2ccccc2)C1=O [DMMDPB, 1,3-dimethoxymethyl-5,5-diphenyl barbituric acid] | increased | 3100 ng·h/mL | 8710 ng·h/mL | 5320 ng·h/mL | 10800 ng·h/mL | 129 ng/mL | 887 ng/mL | 26.1 h | 18.5 h | 7.52 h | 4.88 h | 35.6% and 35.57% | 141.55% | 154.34% | 14.6% and 14.58% | 49.46% | anticonvulsant properties | Adverse events reported (total) ([1]; minor, occurred in both fed and fasting conditions, 23 subjects, single 400 mg oral doses): 35; Tolerability ([1]; single 400 mg oral dose, fed and fasting, healthy males): well tolerated; Absorption with a high fat meal compared with customary dog food [2]: more completely absorbed |
| O=C1NC(=O)C(c2ccccc2)(c2ccccc2)C(=O)N1 [DPB, 5,5-diphenyl barbituric acid] | increased | 143000 ng·h/mL | 219000 ng·h/mL | 185000 ng·h/mL | 271000 ng·h/mL | 1750 ng/mL | 2790 ng/mL | 43 h | 38.5 h | 54.8 h | 48.3 h | 65.3% and 65.28% | 111.62% | 113.50% | 62.9% and 62.93% | 68.04% | anticonvulsant properties |  |
| COCN1C(=O)NC(=O)C(c2ccccc2)(c2ccccc2)C1=O [MMMDPB, monomethoxymethyl-5,5-diphenyl barbituric acid] | increased | 36400 ng·h/mL | 99500 ng·h/mL | 54000 ng·h/mL | 120000 ng·h/mL | 898 ng/mL | 2820 ng/mL | 26.8 h | 16.2 h | 20.2 h | 8.83 h | 36.6% and 36.56% | 165.33% | 229.02% | 31.9% and 31.86% | 44.86% |  |  |
| CCC1(c2ccccc2)C(=O)NC(=O)NC1=O [phenobarbital] |  |  |  |  |  |  |  |  |  |  |  |  |  |  |  |  |  | Serum and brain levels on administration with food [4]: significantly decreased |
